Reference: ChEMBL document CHEMBL2169859, “Modulation of tau protein fibrillization by oleocanthal” (J Nat Prod, 2012)
Active and inactive are the calls of the source. The rule behind the calls is not given here.

Columns and labels:
Homo sapiens [1] = species: Homo sapiens; assay: Inhibition of arachidonic acid-induced human recombinant Tau 2N4R fibrillation expressed in Escherichia coli assessed as alpha helix formation at 125 uM preincubated for 1 hr prior to arachidonic acid challenge measured 28 hrs post arachidonic challenge by CD spectroscopic analysis
Homo sapiens [2] = species: Homo sapiens; assay: Binding affinity to human recombinant Tau 2N4R expressed in Escherichia coli at 0.1 to 25 uM by SPR analysis
Homo sapiens [3] = species: Homo sapiens; assay: Inhibition of human recombinant Tau 2N4R fibrillation expressed in Escherichia coli assessed as alpha helix formation at 125 uM after 1 hr by CD spectroscopic analysis
Homo sapiens [4] = species: Homo sapiens; assay: Binding affinity to human recombinant Tau 2N4R expressed in Escherichia coli assessed as change in protein conformation at 10 mM measured for 60 mins by H/D exchange mass spectrometric analysis
Homo sapiens [5] = species: Homo sapiens; assay: Inhibition of arachidonic acid-induced human recombinant Tau 2N4R fibrillation expressed in Escherichia coli preincubated for 1 hr prior to arachidonic acid challenge measured 6 hrs post arachidonic challenge by Thioflavin-S fluorescence assay

inhibition (Homo sapiens [1]): Active | Activity (Homo sapiens [2]): Active | inhibition (Homo sapiens [3]): Active | Activity (Homo sapiens [4]): Active | inhibition (Homo sapiens [5]): Dose-dependent effect
SMILES: C/C=C(/C=O)[C@@H](CC=O)CC(=O)OCCc1ccc(O)cc1
